Data as given in patent US20090117199A1, “Method of treatment of cancer” (priority 1998, published 2009).
Entries after “also recorded” stand apart in the source; their conditions may differ.

Experiments:
[1] = tested on: MCF-7 [ER−] tumors; assay: Tumor response to IL 10% RB in saline, report 020110.01B; assay type: in vivo, BALB/c Nude Mice; details: 10% RB IL 25-50 μL/tumor Qd × 1; within 21 days; 4/group
[2] = tested on: Murine Hepa I-6 tumors; assay: Tumor response to IL 10% RB in saline, report 020111.01B; assay type: in vivo, BALB/c Nude Mice; details: IL 30-50 μL/tumor Qd × 1; 8/group
[3] = Biodistribution (pharmacokinetic and toxicokinetic) after single IL injection in A375 tumor; assay type: in vivo, nu/nu mice; details: single IL injection of 1% or 6% RB
Method: Growth control and sham treatment groups received no injection. All dosing was performed on Study Day 1.
Pharmacokinetic and toxicokinetic data from RB-treated tumors illustrates that a single IL injection of RB leads to localized retention of drug tumor tissue. This is illustrated in FIGS. 4 and 5, which show concentration of RB in tumor tissue, peritumor tissue and blood for time points ranging from 0.5 hr to 360 hr (15 days) post injection.

[4] = tested on: Murine Hepa 1-6 tumors; assay: Tumor response to IL 10% RB in saline, report 051016.02B; assay type: in vivo, BALB/c Nude Mice; details: 10% RB 45 μL/tumor Qd × 1
[5] = Local tolerance, single subcutaneous injection into normal tissue
Method: The local tolerance study was conducted using female Crl:SKH-1-hrBR hairless mice (Charles river), at least 6 weeks of age and 19-27 g at study Day 1.
All dosing was performed on Study Day 1. Follow-up examination of mice was conducted at regular intervals and the test terminated on either day 4 (3 animal from each group) or Day 15 (the remaining three animals).
Clinical observations were recorded daily (including dermal scoring using the Draize scoring system). Upon sacrifice, animals were subjected to a comprehensive necroscopy. Tissue samples from the injection site (and surrounding tissue) were obtained and examined histologically.

[6] = cited from earlier work
[7] = tested on: cancer cells; details: essentially excluded from normal cells; cited from earlier work
[8] = Kp of RB with and without phosphate buffer; assay type: physicochemical
Source text: This may be compared to 66.7 in the absence of phosphate buffer, in which case the pH would have been between about 6 to about 6.5.

[9] = tested on: melanoma lesions (stage III or IV metastatic melanoma); assay: Human trial, single IL injection of 10% RB solution in unbuffered saline
[10] = cited from earlier work; remark: listed apart in the source
[11] = Critical solubility of Rose Bengal in saline (cloudiness, absorbance at 1000 nm); assay type: physicochemical
Method: Solutions of RB at different concentrations were prepared at different sodium chloride concentrations. Saline 0.9% USP sodium chloride solution from Hospira, having a pH of 5.5, was used as a stock solution. Solutions having different sodium chloride concentrations were obtained by the addition of calculated amounts of sodium chloride.
The prepared RB/sodium chloride solutions were shaken for 1 hour and absorbance measurements were taken at 1000 nm to determine cloudiness. 1000 nm was chosen as this is in the near infra red where RB has negligible absorbance. Solution cloudiness was difficult to detect visually due to the very dark red color.
The following solutions were evaluated: • 1. 20% RB in saline concentrations of 1.0%, 1.5%, 1.6%, 1.7%, 1.8%, 1.9%, 2.0%, 2.5%, 2.6%, 2.7% and 2.9%; • 2. 15% RB in saline concentrations of […]; • 3. 10% RB in saline concentrations of 2.0%, 2.5%, 3.0% and 3.2%; and • 4. 40%, 45%, 50%, 55% and 60% solutions of RB in 0.9% saline.

[12] = Partitioning coefficient of Rose Bengal, saline/1-octanol, effect of electrolyte concentration; details: 0.5 mg/mL RB, approx. 1 day; for Kp: Partitioning coefficient (Kp)
Source text: After mixing, the agent was allowed to partition for approximately 1 day. Based on absorbance measurements at 550 nm for the aqueous phase and 564 nm for the organic phase, the percentage of agent in each phase was obtained.

[13] = 25 evaluable target lesions at final follow up
[14] = analysed per patient, 11 patients
[15] = larger lesions receiving 0.2 mL or greater doses of RB

## O=C([O-])c1c(Cl)c(Cl)c(Cl)c(Cl)c1-c1c2cc(I)c(=O)c(I)c-2oc2c(I)c([O-])c(I)cc12.[Na+].[Na+] [RB, 4,5,6,7-Tetrachloro-2′,4′,5′,7′-tetraiodofluorescein]
[1]
  tumors completely ablated: [ER+] (4/4), MCF-7 [ER−] (4/4),
[2]
  damage/necrosis to peripheral normal tissue: peripheral normal tissue (0/8)
[3]; post-injection
  persistence of markedly elevated RB levels in tumor samples: at least 8 days
[3]; 0.5 hr to 360 hr post injection
  mean levels of RB in blood: ≤ 3 µg/g
[4]; 3 days post injection, 10/group
  tumors fully ablated: IL RB fully ablated 8/10 tumors 3
[4]; large tumors
  partial responses (number of tumors): responses were seen in 2 large
[5]; SC, 2000 mg/kg study group (days 2 and 3), N=6
  fatalities: two fatalities
[5]; SC, 250 and 500 mg/kg
  swelling at the injection site: Swelling was also noted in the injection site for most animals
[5]; SC, 1250-2000 mg/kg
  injection site effect: massive necrosis at the injection site
[5]; SC, <500 mg RB kg body weight, days 4 and 15
  histology of injection site: focal necrosis at the injection site
[5]; SC, dosages up to 250 mg/kg at 1 days post administration
  histological necrosis in normal tissue: no histological evidence of necrosis
[5]; SC, up to 500 mg RB/kg body weight (10%)
  clinical outcome, local tolerance: mild side effects primarily limited to localized discoloration of the injection site; also recorded: only mild clinical effects
[5]; lower dosage groups (below 2000 mg/kg)
  systemic effects: No systemic effects
[5]; one of the two fatalities in Group 6 (2000 mg/kg)
  kidney lesions: mild degeneration of the kidney
[5]; the two fatalities in Group 6 (2000 mg/kg)
  liver lesions: mild to moderate degeneration of the liver
[6]
  half-life of RB in the murine blood stream: approximately 30 min
[7]
  uptake into cancer cells versus normal cells: preferential uptake into cancer cells
[8]; phosphate buffered saline, pH 7.4
  Kp: 11.5
[8]; solution without phosphate buffer (unbuffered), absence of phosphate buffer, pH between about 6 to about 6.5
  Kp: 66.7
[9]; [13]
  objective response rate (ORR), target lesions: 48%
  target lesions with complete response (CR), RECIST: 36%
  target lesions with partial response (PR): 12%
  target lesions with progressive disease: 24%
  target lesions with stable disease: 28%
[9]; 26 evaluable nontarget lesions
  CR, non-target lesions individually: 15%
  ORR, non-target lesions individually: 27%
  PD, non-target lesions individually: 52%
  PR, non-target lesions individually: 12%
[9]; [14]
  CR, overall response per patient: 27%
  ORR, overall response per patient: 55%
  PR, overall response per patient: 27%
  progressive disease (PD), overall response per patient: 18%
  stable disease (SD), overall response per patient: 27%
[9]; [15]
  CR: 62%
  PR: 8%
  successful chemoablation (CR + PR): ~70%
[9]; patients with a negative lesion response
  ORR of nontarget lesions: 0%
[9]; patients with a positive objective response of target lesions
  ORR of nontarget lesions: 44%
[9]; per patient basis
  CR, non-target lesions per patient: 9%
  ORR, non-target lesions per patient: 27%
  PD, non-target lesions per patient: 27%
  PR, non-target lesions per patient: 18%
[9]; per patient, some had subsequent other treatment
  Subsequent status: Alive at 34; also recorded: Dead at 12; also recorded: Dead at 9; also recorded: Alive at 31; also recorded: Alive at 27; also recorded: Dead at 8; also recorded: Alive at 28; also recorded: Alive at 29; also recorded: Alive at 30
[9]; single IL treatment
  adverse effects: generally mild and transient
[10]; bile
  excretion: rapidly excreted from the bile in unmetabolized form
[10]; blood
  removal from the blood: almost exclusively removed from the blood by the liver
[11]; RB solutions within the therapeutic amounts
  solution stability: stable
[11]; in 0.9% saline
  RB concentration that can be achieved: up to 45%
[12]; 0.00% saline
  % Partitioning in Octanol: 75.79 ± 1.75%
  Kp: 3.14 ± 0.29
[12]; 0.50% saline
  % Partitioning in Octanol: 95.13 ± 1.43%
  Kp: 20.8 ± 6.77
[12]; 0.90% saline
  % Partitioning in Octanol: 98.52 ± 0.26%
  Kp: 68.2 ± 4.43
[12]; 2.50% saline
  % Partitioning in Octanol: 99.35 ± 0.28%
  Kp: 215 ± 105
[12]; […] saline
  Kp: 44.2 ± 5.52
  % Partitioning in Octanol: 97.77 ± 0.25%
